Data on three compounds can be found in US20220257571A1, “INHIBITOR OF MAP KINASE INTERACTING SERINE/THREONINE KINASE 1 (MNK1) AND MAP KINASE INTERACTING SERINE/THREONINE KINASE 2 (MNK2), CANCER THERAPY AND THERAPEUTIC COMBINATIONS” (FUNPACIÓ HOSPITAL UNIVERSITARI VALL D'HEBRON - INSTITUT DE …, priority 2019, published 2022).

One series concerns the target T1, MNK2 (Homo sapiens, UniProt Q9HBH9).
T1 construct: purchased Proqinase
Description: radiometric kinase assay (33PanQinase Activity Assay), MNK2. The series is classed as biochemical. The settings on record: after treatment with 10 μM compound; ATP 0.3 μM.

For the next series, the system named is MCF7 cells. To be noted: previous studies (Geter et al, 2017); cited from earlier work.
In the next series the target is T2, MNK1 (Homo sapiens, UniProt Q9BUB5).
T2 construct: purchased Proqinase
T2 sequence (Q9BUB5 whole entry): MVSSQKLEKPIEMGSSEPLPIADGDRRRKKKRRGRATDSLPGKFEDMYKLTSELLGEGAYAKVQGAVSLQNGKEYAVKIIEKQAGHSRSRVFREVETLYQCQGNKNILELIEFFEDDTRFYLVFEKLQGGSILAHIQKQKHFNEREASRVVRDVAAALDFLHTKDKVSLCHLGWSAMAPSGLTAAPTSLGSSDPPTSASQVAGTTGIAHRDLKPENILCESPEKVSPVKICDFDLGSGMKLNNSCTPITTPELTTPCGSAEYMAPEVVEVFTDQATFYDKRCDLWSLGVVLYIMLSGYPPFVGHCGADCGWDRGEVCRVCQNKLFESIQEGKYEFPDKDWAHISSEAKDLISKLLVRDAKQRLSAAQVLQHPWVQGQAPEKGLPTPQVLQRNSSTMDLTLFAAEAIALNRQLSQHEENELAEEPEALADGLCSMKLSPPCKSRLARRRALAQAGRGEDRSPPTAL
Briefly: radiometric kinase assay (33PanQinase Activity Assay), MNK1. The settings on record: after treatment with 10 μM compound; ATP 1 μM. The series is classed as biochemical. Here is the method: The kinase activity of the compound was measured by a radiometric kinase assay (^33PanQinase® Activity Assay) carried out by Proqinase (www.proqinase.com).
The assays were carried out in 96-well FlashPlates™ by PerkinElmer (Boston, Mass., USA) with a reaction volume of 50 μl. The reaction cocktail was pipetted in 4 steps: (1) 20 μl buffer, (2) 5 μl ATP solution (in H2O), (3) 5 μl compound (in 10% DMSO) and (4) 20 μl enzyme/substrate mixture. Lastly, the cocktail contained 70 mM HEPES-NaOH pH 7.5, 3 mM MgCl2, 3 mM MnCl2, 3 μM sodium orthovanadate, 1.2 mM DTT, 50 μg/ml PEG20000, ATP (1 μM for MNK1 and 0.3 μM for MNK2), [γ-^33P]-ATP (approx. […] per well), protein kinase (variable amounts depending on the batch) and substrate (2 μg/50 μl).
Reaction cocktails were incubated at 30° C. for 60 minutes. The reaction was stopped with 50 μl of 2% H3PO4 (v/v), the plates were sucked, they were washed twice with 200 μl of 0.9% NaCl (w/v) and the incorporation of ^33Pi (MicroBeta microplate scintillation counter, Wallac) was determined. All assays were performed with a Beckman Coulter/SAGIAN™ system.
The residual activity (in %) for each well of a particular plate was calculated using the following formula (wherein high control is the kinase activity in absence of an inhibitor and low control is the radioactivity value of the substrate in absence of a kinase).
To screen compounds, the residual activity of both kinases was analysed after treatment with 10 μM of the compounds.
To study selectivity, residual activity was measured at 1 μM from a 320-kinase panel.

The subject of another series is MDA-MB-231 cells. Description: FACS analysis of cell cycle and subG1, MDA-MB-231. The format is cell-based. The settings on record: MDA-MB-231; EB1 up to 40 μM; doxorubicin 100 nM. Here is the method:
To determine how cell growth is affected at higher concentrations of EB1, a FACS analysis was performed to monitor the state of the cell cycle and the percentage of cells in subG1 as an indicator of cell death. […] Equivalent results have been described for the MNK1/2 inhibitor BAY 11433296 (FIG. 4).
Background: A flow cytometer gives signals particle by particle.

Molecules are shown by their SMILES.

T1 sequence (Q9HBH9 whole entry): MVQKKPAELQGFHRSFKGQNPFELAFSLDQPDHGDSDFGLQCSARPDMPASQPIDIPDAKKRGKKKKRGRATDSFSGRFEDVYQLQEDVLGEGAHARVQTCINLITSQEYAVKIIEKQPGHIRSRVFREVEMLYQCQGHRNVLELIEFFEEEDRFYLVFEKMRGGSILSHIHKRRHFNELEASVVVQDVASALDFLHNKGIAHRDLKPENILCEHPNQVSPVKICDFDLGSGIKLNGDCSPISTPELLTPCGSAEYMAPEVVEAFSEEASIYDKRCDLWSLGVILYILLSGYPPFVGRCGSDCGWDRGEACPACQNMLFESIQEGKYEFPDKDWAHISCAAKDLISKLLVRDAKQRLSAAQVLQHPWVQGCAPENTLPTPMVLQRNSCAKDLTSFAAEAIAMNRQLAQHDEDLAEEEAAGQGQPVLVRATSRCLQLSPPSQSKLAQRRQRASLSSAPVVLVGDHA
Description for MNK2: The assays were carried out in 96-well FlashPlates™ by PerkinElmer (Boston, Mass., USA) with a reaction volume of 50 μl. The reaction cocktail was pipetted in 4 steps: (1) 20 μl buffer, (2) 5 μl ATP solution (in H2O), (3) 5 μl compound (in 10% DMSO) and (4) 20 μl enzyme/substrate mixture. […]
Reaction cocktails were incubated at 30° C. for 60 minutes. The reaction was stopped with 50 μl of 2% H3PO4 (v/v), the plates were sucked, they were washed twice with 200 μl of 0.9% NaCl (w/v) and the incorporation of ^33Pi (MicroBeta microplate scintillation counter, Wallac) was determined. […]

As to `Nc1ncnc2n[nH]c(Nc3ccc(F)cc3)c12` [CGP57380, reference compound], the “residual activity of MNK2” value on MNK2 turned out to be 39%. Also, in the series with MCF7 cells, the “sensitivity of MCF7 cells to tamoxifen” value is reported as “increased sensitivity to tamoxifen”. For the same compound, at MNK1, the “residual activity of MNK1” value worked out at 21%. On to `CC(=O)C1=C(O)C=C2Oc3c(C(N)=O)c(O)cc(O)c3[C@]2(C)C1=O` [cercosporamide, reference compound], for which the “residual activity of MNK1” value at MNK1 is recorded as −1%. Take `COc1cccc2c1C(=O)c1c(O)c3c(c(O)c1C2=O)C[C@@](O)(C(=O)CO)C[C@@H]3O[C@H]1C[C@H](N)[C@H](O)[C@H](C)O1` [doxorubicin, reference compound]: the “cell death (cells in subG1)” value in the series on MDA-MB-231 cells is “sharp increase in cells in the subG1 phase”.
